Measured values reported in PMC5694528, “Human mass balance study and metabolite profiling of ^14C-niraparib, a novel poly(ADP-Ribose) polymerase (PARP)-1 and PARP-2 inhibitor, in patients with advanced cancer” (Investigational New Drugs, 2017).
Like-named read-outs stand apart in the source and are kept apart here. Values belong to the molecule of their own block, whether it stands above or below them.

Columns and labels:
[1] = Metabolite profiling in plasma, urine and faeces by LC-LSC-MSn; format: in vivo, human; conditions: for Amount excreted in urine (0–144 h) / Amount excreted total, urine and faeces (0–144 h) / Amount excreted in faeces (0–144 h): % of administered dose; for Plasma exposure: relative AUC0-168h (% of AUC0-168h from total 14C): 0-168 h
Description: Metabolite profiling was divided into two parts: metabolite screening and identification, and metabolite quantification. During the first part, inter-patient pooled samples were analysed to screen for the presence of metabolites. Afterwards, individual patient samples or within-patient pooled samples (depending on the matrix) were analysed and metabolites found during the screening phase were quantified. Plasma, urine and faeces samples were selected both for screening and quantification. Three time points were selected for screening of plasma samples. Besides the pre-dose, a sample around the tmax was chosen, because these samples contained the highest amount of radioactivity. It was also of interest to select a sample in which the amount of radioactivity was much higher than the amount of parent compound, because this is indicative of the presence of metabolites. Consequently, 4 h and 48 h were selected and screened for metabolites. Individual patient samples from 0 […] and 168 h were analysed and metabolites in these samples were quantified. All urine samples were pooled within patients, and afterwards these samples were pooled between patients. […] The same procedure was applied for faeces samples. Again, 24 h-interval pools were made, first within patients and then between patients. The latter were used for metabolite screening, whereas the first were analysed afterwards, during the quantification step. […] Plasma samples (pre-dose, 4 h and 48 h) were pooled by equal volumes. In addition, the individual samples (pre-dose, 4 h, 12 h, 24 h, 48 h, 72 h and 168 h) were analysed. Plasma samples were extracted once with acetonitrile-methanol (50:50, v/v). […] An aliquot of the clear supernatant was analysed for total radioactivity to determine extraction efficiency. The remaining supernatant was used for analysis by LC-MS^n in combination with off-line LSC (LC-LSC-MS^n). Urine samples were first pooled within patients. […] These samples were analysed without pre-treatment. […] Faeces homogenate samples were extracted once with 0.1% formic acid in acetonitrile. […] An aliquot of the clear supernatant was analysed for total radioactivity to determine extraction recovery. The remaining supernatant was used for LC-LSC-MS^n analysis. Samples were analysed by LC (Shimadzu, Kyoto, Japan) coupled to a linear ion trap mass spectrometer (Thermo Electron, Waltham, MA, USA) in combination with off-line LSC (LC-Linear Ion Trap LTQ XL Mass Spectrometry (MS)-LSC). To separate known and unknown metabolites, an HPLC gradient was applied. A flow rate of 1 mL/min was maintained during the following 50-min gradient: starting at 10%B and increasing to 36.25%B over 35 min, then to 90%B in 12 min. This was held for 2 min and then it was reverted back to the initial conditions of 10%B at 49 min. Mobile phase A consisted of 20 mM ammonium acetate in water and mobile phase B consisted of 0.1% formic acid in acetonitrile. Structural information on niraparib metabolites was obtained using Data Dependent Acquisition. Accurate mass measurements were performed to confirm the chemical structures of the metabolites. These measurements were performed on an Ultimate 3000 LC (Dionex) coupled to an LTQ Orbitrap XL MS (Thermo Electron, Waltham). The same gradient composition was applied. […] The metabolite profiles of ^14C-niraparib-derived radioactivity were determined for selected aliquots of extracts of plasma, urine and faecal homogenates using LC-MS/MS, fractionation and off-line LSC. After pre-treatment, samples were injected onto a Phenomenex Synergi Hydro-RP (250 × 4.6 mm, 4 μm) column. Data Dependent Acquisition was applied, causing the detection and fragmentation of the most abundant ions. Besides this, a parent list with possible metabolites was constructed, meaning that apart from the most abundant ions, also the ones with the masses in this parent list were further fragmentised for which MS^2 and MS^3 spectra were obtained. […]

[2] = Plasma pharmacokinetics of niraparib and M1 by validated LC-MS/MS after a single oral 300 mg dose of 14C-niraparib; format: in vivo; conditions: human; for AUC(0-inf): read-out: AUC0-inf (mean); for AUC(0-t): read-out: AUC0-last (mean); for half-life: read-out: t1/2 (mean) (converted); for Tmax: read-out: tmax (median)
Description: Dose reductions were allowed twice. […] All patients provided written informed consent. Blood sampling was done at the following time points: pre-dose, 1, 1.5, 2, 3, 4, 6, 9 and 12 hours (h) after administration and in the morning of Day 2, 3, 4, 5, 8, 11, 15 and 22. For each time point, a 10 mL K2EDTA blood collection tube was used (Vacutainer®, Becton, Dickinson and Company, Franklin Lakes, NJ, USA) and blood was drawn via a peripheral line. […] Separate aliquots were made for radioactivity measurements as well as LC-MS/MS and metabolite profiling experiments. All samples were stored at −80 °C. […] Gradient elution was applied using 20 mM ammonium acetate in water (mobile phase A) and 0.1% formic acid in acetonitrile-methanol (50:50, v/v; mobile phase B). […] Quality control samples were prepared and analysed together with the study samples. […] Analysis was done by a non-compartmental method using WinNonlin Phoenix Version 6.2.1 or higher (Pharsight Corporation, St. Louis, Missouri, USA).

[3] = Safety assessment (NCI CTCAE) in the mass balance study
Description: The National Cancer Institute Common Terminology Criteria for Adverse Events (NCI CTCAE) grading system was used to describe the severity of the adverse events (AEs) that occurred. Haematology, blood chemistry and vital signs were also part of the safety assessment.

[4] = tested on: recurrent, platinum sensitive, ovarian, fallopian tube, or primary peritoneal cancer; conditions: adult patients in complete or partial response to platinum-based chemotherapy; cited from earlier work
[5] = Description: Six evaluable patients were enrolled in this open-label mass balance clinical study (ClinicalTrials.gov identifier NCT02476552) and were admitted to the study center for at least 10 days, with the 11th day being optional. […] From the moment of administration, all urine and faeces were collected. […] Dose reductions were allowed twice. The study was conducted in conformance with the International Conference on Harmonisation (ICH) guidelines for Good Clinical Practice (GCP) and in accordance with the Declaration of Helsinki. The protocol was approved by the Netherlands Cancer Institute Independent Ethics Committee. All patients provided written informed consent.
For the purpose of the mass balance study and metabolite profiling, urine and faecal samples were collected. Urine was collected at pre-determined intervals: pre-dose, 0–12 h, 12–24 h, 24–36 h and 36–48 h after administration. From Day 3 onwards, urine was collected over periods of 24 h. Urine was stored in polyethylene containers at 2–8 °C for the duration of the collection period. After each collection period, urine samples were mixed thoroughly, weighed, portioned into aliquots, and then frozen at ≤ − 70 °C. Separate aliquots were made in polypropylene tubes for analysis by LC-MS/MS, metabolite profiling and TRA analysis by LSC.
Faeces were collected and weighted per stool. Sample pre-treatment involved diluting and homogenising the faeces by adding water (1:3 w/v; B. Braun). A T25 basic Ultra Turrax (IKA Works, Staufen, Germany) was used to homogenise the samples before aliquoting. Urine and faeces sample collection occurred according to the following requirements: • If the total radioactivity in the Day 14 faecal/urine sample is detected to be higher than 0.1% and the total recovery of accumulative radioactivity ≤85% (faeces and urine) of the radioactivity of the dose given, faecal/urine samples will be collected every 24 h through Day 21. • If the total radioactivity in the Day 21 faecal/urine sample is detected to be higher than 0.1% and the total recovery of accumulative radioactivity ≤85% (faeces and urine), faecal/urine samples will continue to be collected every 24 h. • Faecal/urine sample collection will stop after Day 21, if the recovered radioactivity is below 1% (per 24 h) for the two consecutive days prior to Day 21 (Day 19 and Day 20). If this is not the case, collection will stop as soon as the recovered radioactivity is below 1% (per 24 h) for two consecutive days after Day 21.
TRA analysis was performed on a Liquid Scintillation Counter Tri-Carp 2910 (PerkinElmer, Groningen, The Netherlands). Aliquots of 200 μL of whole blood, plasma and faeces (all in duplicate), and 1 mL of urine (in singular) were transferred to scintillation vials. Whole blood and faecal samples needed to be moderately translucent and colourless. Therefore, 2-propanol (1 mL) was added to faecal samples to dissolve fibres, NaEDTA (0.1 mL) was added to whole blood to reduce foaming, and Solvable™ (1 mL) was added to both matrices to solubilise tissue. Hydrogen peroxide 30% (0.4 mL to faeces and 0.5 mL to whole blood) was added to reduce colour intensity. These samples were placed in a water bath (at least 40 °C; GF1086, Salm en Kipp, Breukelen, The Netherlands) to stimulate the chemical processes. Finally, 10 mL of Ultima Gold™ Cocktail (PerkinElmer) was added and the samples were analysed, either for 60 min or until the 2-sigma error was less than or equal to 5%, whichever came first. A scintillant blank was used to provide as a background sample.

[6] = daily dose of 300 mg; cited from earlier work
[7] = population pharmacokinetic analysis, all the patients in NOVA study; cited from earlier work
[8] = plasma, single oral dose 300 mg 14C-niraparib, n = 6
[9] = % of administered dose, up to 144 h
[10] = % of administered radioactive dose, through 504 h post-dose

Molecule: COC(=O)c1cccc2cn(-c3ccc([C@@H]4CCCNC4)cc3)nc12 [Methylated M1 (7), Methylated M1]
Amount excreted in urine (0–144 h) [1]: not detected
Plasma exposure: relative AUC0-168h (% of AUC0-168h from total 14C) [1]: 2.5%

Molecule: NC(=O)c1cccc2cn(-c3ccc([C@@H]4CCCNC4)cc3)nc12 [niraparib, 2-{4-[(3S)-piperidin-3-yl]phenyl}-2H-indazole-7-carboxamide]
Amount excreted in faeces (0–144 h) ([1]; listed as Niraparib (5)): 18.7%
Amount excreted in urine (0–144 h) ([1]; listed as Niraparib (5)): 10.5%
Amount excreted total, urine and faeces (0–144 h) ([1]; listed as Niraparib (5)): 29.2%
Amount excreted in faeces (0–144 h) ([1]; listed as niraparib (5)): 18.7%
Amount excreted in urine (0–144 h) ([1]; listed as niraparib (5)): 10.5%
Vd/F ([2]; in vivo, oral, cancer patients, across the clinical studies, read-out: apparent Vd/F, collective conclusion): ≥ 1000 L
Cmax [2, 8]: 540 ng/mL
AUC(0-inf) [2, 8]: 18500 ng·h/mL
AUC(0-t) [2, 8]: 18400 ng·h/mL
Vd/F ([2]; plasma, single oral dose 300 mg 14C-niraparib, n = 6, read-out: Vd/F (mean)): 2170 L
half-life [2, 8]: 87.4 h
Tmax [2, 8]: 2.49 h
Grade of AEs considered likely to be related to study treatment ([3]; NCI CTCAE): ≤ 2 grade
TEAEs leading to study drug discontinuation or death ([3]; six patients): no TEAEs led to study drug discontinuation or death
Total number of adverse events reported ([3]; six patients, single oral dose 300 mg): 21
progression-free survival (PFS) [4]: met its primary endpoint of improving progression-free survival
Total radioactivity recovered in excreta (urine and faeces) [5, 9]: 71.6%
Total radioactivity recovered in faeces [5, 9]: 31.6%
Total radioactivity recovered in urine [5, 9]: 40%
Mean total radioactivity recovered in excreta (urine and faeces) [5, 10]: 86.3%
Mean total radioactivity recovered in faeces [5, 10]: 38.8%
Mean total radioactivity recovered in urine [5, 10]: 47.5%
Administered dose recovered in excreta ([5]; within the first 4 days (96 h) after dosing): over 50%
tolerability [6]: well tolerated
apparent Vd/F [7]: 1074 L

Molecule: M1-glucuronide [Compound M10]
Amount excreted in urine (0–144 h) [1]: 6.2%
Plasma exposure: relative AUC0-168h (% of AUC0-168h from total 14C) [1]: 55.7%

Molecule: M1-glucuronide [M10 (2)]
Amount excreted in urine (0–144 h) [1]: 6.2%
Amount excreted total, urine and faeces (0–144 h) [1]: 6.2%
Plasma exposure: relative AUC0-168h (% of AUC0-168h from total 14C) [1]: 26.8%

Next, values leading:

Amount excreted in urine (0–144 h) [1]: 20.0%
Amount excreted total, urine and faeces (0–144 h) [1]: 22.4%
Amount excreted in faeces (0–144 h) ([1]; listed as M1 (4)): 2.4%
Amount excreted in urine (0–144 h) ([1]; listed as M1 (4)): 20%
Plasma exposure: relative AUC0-168h (% of AUC0-168h from total 14C) ([1]; listed as M1 (4)): 9.3%
Cmax [2, 8]: 476 ng/mL
AUC(0-inf) [2, 8]: 41200 ng·h/mL
AUC(0-t) [2, 8]: 40800 ng·h/mL
half-life [2, 8]: 78.4 h
Tmax [2, 8]: 9.02 h
Molecule: O=C(O)c1cccc2cn(-c3ccc([C@@H]4CCCNC4)cc3)nc12 [Compound M1, Amide hydrolysed niraparib]

Amount excreted in urine (0–144 h) [1]: <LLOQ
Plasma exposure: relative AUC0-168h (% of AUC0-168h from total 14C) [1]: 6.0%
Molecule: M1-glucuronide [M10 (1)]

Amount excreted in urine (0–144 h) [1]: <LLOQ
Plasma exposure: relative AUC0-168h (% of AUC0-168h from total 14C) [1]: 22.9%
Molecule: M1-glucuronide [M10 (3)]
